For one assay, the target named is SIRT1 (Homo sapiens (Human), UniProt Q96EB6). The experiment in a line: SIRT1 inhibition assay (Fluor de Lys fluorescence-based assay kit). In kind it is biochemical. As to conditions: human recombinant enzyme; for inhibition at 60 µM: read-out: SirT1 (% inhib at 60 μM). How it is done: (§1) SIRT1 and SIRT2 Inhibition Assays
(§2) All compounds were tested for inhibition of SIRT1 and SIRT2 using human recombinant enzymes available in the Fluor de Lys fluorescence-based assay kit (BIOMOL, AK555, AK556). All other required reagents were provided in the kit which was stored at −78° C. Before use, small aliquots of each enzyme (2-3 μL) were prepared, snap frozen in liquid nitrogen and stored at −78° C. Fresh dilutions of compounds were prepared in DMSO and further diluted in assay buffer. NAD^+ (12.5 […] at 4 mM) and Fluor de Lys SIRT1 or SIRT2 (12.5 μL at 100 μM) in assay buffer were added to a white 96 well plate, followed by compound (10 μL) and lastly enzyme (15 μL, 0.07 U/μL or SIRT1 and 0.3 U/μL for SIRT2). After incubation for 1 h at 37° C. a developer solution (50 μL) was added to each reaction. The developer solution contained 38 μL buffer, 10 μL developer and 2 μL nicotinamide (50 mM) per reaction. The plate was then incubated for 45 min at rt and then read using a Spectra Max Gemini fluorimeter with an excitation wavelength of 355 nm and an emission wavelength of 460 nm. SigmaPlot software was used to generate fit curves for raw plots and the equation for each curve was used to calculate IC50 data.

The target in the next assay is SIRT2 (Homo sapiens (Human), UniProt Q8IXJ6). In words: SIRT2 inhibition assay (Fluor de Lys fluorescence-based assay kit). Type of assay: biochemical. As to conditions: human recombinant enzyme; for inhibition at 60 µM: read-out: SirT2 (% inhib at 60 μM). The method, then: as §1, §2
For another assay, the system named is 3T3L1 cells. In words: Adipocyte differentiation assay (ORO red lipid staining). Type of assay: cell-based, mouse. The note with it: 10 μM compound, 3T3L1 cells in the 8 media, in duplicate, versus controls with and without DMSO. How it is done: Adipocyte Differentiation Assay
3T3L1 cells (i.e. mouse fibroblasts that differentiate into adipocytes in so-called differentiation medium) were treated in a low glucose differentiation medium (as described by F Wang and Q Tong (Molecular Biology of the Cell, 20, 2009, 801-808) with either (i) a normal growth medium (DMEM), (ii) a low glucose differentiation medium containing ciglitazone, d-biotin, dexamethasone, IBMX, insulin and L-thyroxine, or a (iii) a low glucose differentiation medium as per (ii) but lacking one of the components (i.e 6 different media each comprising five components selected from ciglitazone, d-biotin, dexamethasone, IBMX, insulin and L-thyroxine). Cells were stained with ORO red to detect lipid.
The same differentiation assays with each of the 8 differentiation media were then repeated but with addition of DMSO solvent and also 10 μM of compound D3 (5-dimethylamino-pentanoic acid {4-[3-(3,5-dichloro-4-methoxy-benzoyl)-thioureido]-phenyl}-amide hydrochloride) in duplicate.

Counter-ions that a name gives are not always drawn.

The term IC50 denotes the concentration at which inhibition is half-maximal.

Sequence of SIRT2 (Q8IXJ6 whole entry): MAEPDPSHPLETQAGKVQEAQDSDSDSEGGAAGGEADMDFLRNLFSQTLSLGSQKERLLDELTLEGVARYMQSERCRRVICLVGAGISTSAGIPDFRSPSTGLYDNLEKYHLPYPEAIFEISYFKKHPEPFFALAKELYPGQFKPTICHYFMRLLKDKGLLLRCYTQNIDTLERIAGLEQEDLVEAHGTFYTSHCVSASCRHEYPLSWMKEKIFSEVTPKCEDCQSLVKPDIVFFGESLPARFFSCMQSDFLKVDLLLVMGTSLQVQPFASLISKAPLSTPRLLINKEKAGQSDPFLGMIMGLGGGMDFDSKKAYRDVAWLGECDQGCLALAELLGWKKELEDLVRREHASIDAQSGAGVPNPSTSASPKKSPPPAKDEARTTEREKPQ
Sequence of SIRT1 (Q96EB6 whole entry): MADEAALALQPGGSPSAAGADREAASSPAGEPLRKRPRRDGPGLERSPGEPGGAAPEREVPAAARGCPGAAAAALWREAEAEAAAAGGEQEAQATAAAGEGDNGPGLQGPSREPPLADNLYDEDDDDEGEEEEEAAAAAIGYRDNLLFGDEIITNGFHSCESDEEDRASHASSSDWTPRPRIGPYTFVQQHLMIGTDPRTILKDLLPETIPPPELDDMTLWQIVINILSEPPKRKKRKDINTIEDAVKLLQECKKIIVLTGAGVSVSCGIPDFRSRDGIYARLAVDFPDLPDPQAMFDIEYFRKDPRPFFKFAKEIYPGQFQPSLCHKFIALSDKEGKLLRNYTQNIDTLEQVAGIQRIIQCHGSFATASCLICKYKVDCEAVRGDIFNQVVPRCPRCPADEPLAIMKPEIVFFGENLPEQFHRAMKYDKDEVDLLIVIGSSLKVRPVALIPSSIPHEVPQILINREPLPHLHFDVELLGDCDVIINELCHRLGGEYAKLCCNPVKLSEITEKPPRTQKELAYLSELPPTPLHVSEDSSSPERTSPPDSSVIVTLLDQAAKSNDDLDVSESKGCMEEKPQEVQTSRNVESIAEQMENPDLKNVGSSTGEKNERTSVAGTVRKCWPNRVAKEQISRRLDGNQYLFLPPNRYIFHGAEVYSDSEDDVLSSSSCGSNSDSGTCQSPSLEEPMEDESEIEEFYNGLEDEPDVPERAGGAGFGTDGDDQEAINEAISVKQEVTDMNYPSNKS

As for `CN(C)CCCCC(=O)Nc1ccc(NC(=S)NC(=O)c2ccccc2)cc1` [Compound B4, 5-Dimethylamino-pentanoic acid [4-(3-benzoyl-thioureido)-phenyl]-amide hydrochloride], the inhibition at 60 µM at SIRT1 (60 μM compound) turned out to be 3.5%; on SIRT2 (60 μM compound) it was 43.7%.
Regarding `CN(C)CCCCC(=O)Nc1ccc(NC(=S)NC(=O)c2ccc(Br)cc2)cc1` [Compound B5, 5-Dimethylamino-pentanoic acid {4-[3-(4-bromo-benzoyl)-thioureido]-phenyl}-amide hydrochloride], the inhibition at 60 µM was 13.5% on SIRT1 (60 μM compound) and 47.7% at SIRT2 (60 μM compound). Also, the figures for the IC50 on SIRT1 and at SIRT2 were 62.1 ± 2.3 µM and 39.5 ± 9.7 µM, respectively.
On to `CN(C)CCCCC(=O)Nc1ccc(NC(=S)NC(=O)c2ccc(C(F)(F)F)cc2)cc1.Cl` [Compound B6], for which the “SirT1 (% inhib at 60 μM)” value on SIRT1 (60 μM compound) is recorded as 10.9%. Moreover, the “SirT2 (% inhib at 60 μM)” value on SIRT2 (60 μM compound) amounted to 17.1%.
In the case of `Cc1ccc(C(=O)NC(=S)Nc2ccc(NC(=O)CCCCN(C)C)cc2)cc1C` [Compound C4, 5-Dimethylamino-pentanoic acid {4-[3-(3,4-dimethyl-benzoyl)-thioureido]-phenyl}-amide hydrochloride], the inhibition at 60 µM came to 27.5% at SIRT1 (60 μM compound) and 65.1% on SIRT2 (60 μM compound).
As for `Cc1cc(C(=O)NC(=S)Nc2ccc(NC(=O)CCCCN(C)C)cc2)ccc1Br` [Compound C5, 5-Dimethylamino-pentanoic acid {4-[3-(4-bromo-3-methyl-benzoyl)-thioureido]-phenyl}-amide hydrochloride], the results for the inhibition at 60 µM at SIRT1 (60 μM compound) and on SIRT2 (60 μM compound) were 24% and 77.1%, respectively. Also, the IC50 is 69.6 ± 0.6 µM at SIRT1 and 34.3 ± 7.2 µM at SIRT2.
With `COc1ccc(C(=O)NC(=S)Nc2ccc(NC(=O)CCCCN(C)C)cc2)cc1C(F)(F)F` [Compound C6, 5-Dimethylamino-pentanoic acid {4-[3-(4-methoxy-3-trifluoromethyl-benzoyl)-thioureido]-phenyl}-amide hydrochloride], the inhibition at 60 µM was 58.3% at SIRT1 (60 μM compound) and 29.5% on SIRT2 (60 μM compound). For the same compound, the IC50 was 51.7 ± 6.9 µM at SIRT1 and greater than 90 µM at SIRT2.
The like results for `CN(C)CCCCC(=O)Nc1ccc(NC(=S)NC(=O)c2cc(F)c(F)c(F)c2)cc1` [Compound D1, 5-Dimethylamino-pentanoic acid {4-[3-(3,4,5-trifluoro-benzoyl)-thioureido]-phenyl}-amide hydrochloride] were, in that order, 7.5%, 46%, greater than 90 µM and 52.5 ± 12.3 µM.
Consider `COc1c(Cl)cc(C(=O)NC(=S)Nc2ccc(NC(=O)CCCCN(C)C)cc2)cc1Cl.Cl` [Compound D3, 5-Dimethylamino-pentanoic acid {4-[3-(3,5-dichloro-4-methoxy-benzoyl)-thioureido]-phenyl}-amide hydrochloride], for which the inhibition at 60 µM was found to be 35% on SIRT1 (60 μM compound) and 80.3% on SIRT2 (60 μM compound). Moreover, the results for the IC50 on SIRT1 and on SIRT2 were 62.5 ± 3.6 µM and 10.7 ± 1.6 µM, respectively. Also, the “oro red staining (adipogenesis)” value in the assay on 3T3L1 cells is reported as “increases the oro red staining”.

Values taken from patent US9365508B2, “Aroyl thiourea derivatives” (University Court of the University of St Andrews, priority 2009, dated 2016).
